From US10752900B2, “Oligonucleotides for modulating gene expression and uses thereof” (BIOGENERA S.P.A., priority 2012, dated 2020)

How the values were obtained:
MYCN gene = assay: QT-PCR, MYCN mRNA in Kelly cells; type: cell-based, human; parameters: mRNA Inhibition (%)(Kelly): concentration or dose not given beside the values; settings: for mRNA inhibition (%): Table 1, PNA 1 μM, RNA extracted after 24 hours; for Kelly % mRNA: Table 6
Procedure: For the purpose of assessing the ability of the oligonucleotides of the present invention to modulate the expression of the target genes, their ability to reduce the quantity of messenger RNA was analyzed using the Real-Time PCR technique.
For this purpose, use was made of 24-well plates, which were seeded with 5.0×10^4 cells with 0.3 ml of OPTI-MEM (GIBCO BRL) medium, 4% FBS and 2 mM L-glutammine (experiments in triplicate) per well.
The cells were incubated for 24 hours at 37° C., in an atmosphere containing 5% CO2 to permit adherence to the base of the wells.
Each oligonucleotide analyzed, except for the PNA oligonucleotides, was incubated beforehand with 2 μl of Lipofectamine 2000 (Invitrogen), with 0.3 mL of serum-free OPTI-MEM (GIBCO BRL) medium.
For each well, the oligonucleotides were analyzed at the following final concentrations: • the antisense oligonucleotides siRNA and siRNA gapmer (i.e. the oligonucleotides containing one or more monomers of chemically modified nucleic acids at the 3′ or 5′ end, while in the central portion they have monomers of nucleic acids that have not been modified or have been modified at the level of the phosphodiester bond as a phosphorothioate bond) were used at 200 nM; • the antisense oligonucleotides containing phosphorothioate DNA monomers, the RNA antigene oligonucleotides (agRNA) and the oligonucleotides containing DNA monomers and LNA monomers were used at 10 μM; • the morpholino oligonucleotides were used at a concentration of 1 μM, and • the PNA oligonucleotides were administered at a concentration of 1 μM.
The cells were treated with the oligonucleotides, adding FBS up to 4% 6 hours after administration of the same. After 24 hours the total RNA was extracted from each well and purified using the RNeasy Mini Kit (QIAGEN).
Assays were performed on 8 cell lines obtained from 5 different human tumours which are correlated with MYCN expression, i.e.: • as a neuroblastoma model use was made of the cell lines Kelly, IMR-32 (where the MYCN gene is amplified and superexpressed) and SKNBE2c and LAN1 (where the MYCN gene is amplified and superexpressed and the p53 gene is mutated); • as a rabdomiosarcoma model use was made of the cell line RH30, where the MYCN gene is amplified and superexpressed; • as a Wilms' tumour model use was made of the cell line WiT49, where the MYCN gene is amplified and superexpressed; • as a retinoblastoma model use was made of the cell line Y79, where the MYCN gene is amplified and superexpressed; and • as a model of small cell lung cancer use was made of the cell line H69 where the MYCN gene is amplified and superexpressed.
As a control, use was made of the same cell lines as listed above treated with sterile water instead of oligonucleotides. Each RNA sample was quantified (in duplicate) using a NanoDrop ND-1000 spectrophotometer (NanoDrop Technologies). The first strand of cDNA was produced using the cDNA Synthesis Kit for RT-PCR (Roche). For the cDNA synthesis reaction a total of 1 μg of RNA was used. For the real-time PCR, 10 ng of cDNA in a final volume of 20 μl was used with SYBR Green Master Mix 2× (Applied Biosystems) (3 identical experiments were conducted in triplicate). Two housekeeping genes were used as positive controls: GAPDH and beta-actin (ACTB).
The conditions of the QT-PCR reaction were: 10 min at 95° C., 20 sec at 95° C., and 30 sec at 60° C., for 50 cycles.
As far as the PNA oligonucleotides are concerned, the results regarding their ability to inhibit the transcription of the MYCN gene and proliferation of Kelly cells are shown in Table 1.
The oligonucleotides were tested in vitro (at a concentration of 2.5 μM) to determine their ability to inhibit the transcription of the gene they are directed against by measuring the levels of the gene messenger in cellular models in which the gene of interest is overexpressed. The methods used are the ones described in example 1. […]

H69 = assay: Cellular proliferation assay (ATP-Lite), H69 cells; type: cell-based, human; settings: Table 6
Procedure: For the purpose of assessing the gene modulation ability of the oligonucleotides of the present invention, the effect of their administration on cell viability was determined.
For this purpose 5×10^3 cells per well were seeded into 96-well cell culture plates (experiments conducted in triplicate) with 100 μl of OPTI-MEM (GIBCO BRL) medium containing 4% FBS and 2 mM of L-glutammine.
The PNA oligonucleotides were administered at different concentrations (1 μM-2.5 μM-5 μM-10 μM) in order to observe a dose-effect relationship.
The viability of the treated cells was determined at 48, 72, 96 and 168 hours after treatment.
(§1) Cell viability was assessed by means of an ATP-Lite assay (Luminescence ATP Detection Assay System, PerkinElmer) and is reported as the ratio between the average signal of the treated wells compared to the average value of the wells of untreated control cells. The cells were processed following the instructions provided with the kit.
The assays were performed on the same cell lines used to determine the levels of the MYCN gene messenger and listed in the paragraph: Treatments with Oligonucleotides—QT-PCR.
The PNAs having SEQ ID NO: 1-12 were also tested on different cell lines which overexpress MYCN (Kelly, SKNBE2c, RH30, WiT49, WERI-Rb1 1 and H69). The results are shown in Table 6 and confirm the selectivity and specificity of the inhibition effect of the PNAs on the product of protein translation of the MYCN gene.
The ability of the tested oligonucleotides to inhibit the messenger of the gene of interest was measured and the proliferative capacity of the cells following administration of the oligonucleotides was also assessed.

Phoenix = assay: Cellular proliferation, Phoenix fibroblastoid-type cells; type: cell-based; settings: Table 1; cells that do not express MYCN
Procedure: as §1
Moreover, the oligonucleotides having SEQ ID NO 1-23 were administered in lines of fibroblastoid-type cells (NIH-3T3 and Phoenix) and the results are shown in Table 1 (last two columns). […]

Substance	mRNA inhibition (%) (MYCN gene)	Kelly % mRNA (MYCN gene) [%]	H69 % cell prol. (H69) [%]	Phoenix prolif. (%) (Phoenix)	mRNA Inhibition (%)(Kelly) (MYCN gene; Table 7, SEQ ID NO: 5 and guanine-group mutants) [%]
SEQ ID NO: 1: PNA ATGCCGGGCATGATCT against MYCN; subject of patent EP 1618195, control sequence used for comparison (all peptide nucleic acid (PNA)) [reference compound]	42	48	77	100	
SEQ ID NO: 2: PNA antigene oligonucleotide GGGTGGATGCGGGGGG directed against MYCN (PNA backbone, chemistry not fully specified)	75	75	61	100	
SEQ ID NO: 3: PNA antigene oligonucleotide GATGCGGGGGGCTCCT directed against MYCN (PNA backbone, chemistry not fully specified)	68	68	63	100	
SEQ ID NO: 4: PNA antigene oligonucleotide GTCGGCGGGAGGTAAG directed against MYCN (PNA backbone, chemistry not fully specified)	65	65	66	100	
SEQ ID NO: 5: PNA antigene oligonucleotide GCTGGGTGGATGCGGG directed against MYCN (PNA backbone, chemistry not fully specified)	62	62	68	100	62
SEQ ID NO: 6: PNA antigene oligonucleotide TGGACGCGCTGGGTGG directed against MYCN (PNA backbone, chemistry not fully specified)	60	60	69	100	
SEQ ID NO: 7: PNA antigene oligonucleotide CGCGCTGGGTGGATGC directed against MYCN (all peptide nucleic acid (PNA))	58	58	67	100	
SEQ ID NO: 8: PNA antigene oligonucleotide GTCTGGACGCGCTGGG directed against MYCN (all peptide nucleic acid (PNA))	54	54	66	100	
SEQ ID NO: 9: PNA antigene oligonucleotide CCCTGCAGTCGGCGGG directed against MYCN (all peptide nucleic acid (PNA))	51	51	70	100	
SEQ ID NO: 10: PNA antigene oligonucleotide CGGCCGCGGGCCGCCA directed against MYCN (PNA backbone, chemistry not fully specified)	51	51	79	100	
SEQ ID NO: 11: PNA antigene oligonucleotide GGGAACTGTGTTGGAG directed against MYCN (PNA backbone, chemistry not fully specified)	48	50	78	100	
SEQ ID NO: 12: PNA antigene oligonucleotide TGTCTGGACGCGCTGG directed against MYCN (all peptide nucleic acid (PNA))	47	50	78	100	
